Tested on: sialylation of core 1 O-linked glycans of plasma glycoproteins (T/ST ratio)
Test: Plasma T/ST ratio (T-antigen to monosialylated ST-antigen) by LC-MS/MS in treated GNE myopathy patients
Assay type: in vivo, human
Method: The quantification of the T/ST ratio was carried out using the O-glycan quantification methods disclosed in Liu et al. Mol Genet Metab 106, 442-454 (2012). Briefly, O-linked glycans from human serum or plasma total glycoproteins were released by sodium hydroxide with sodium borohydrate and desalted by ion-exchange column and then permethylated before the quantity of T-antigen and monosialyl ST-antigen was measured using LC-MS/MS method. Plasma samples from 40 normal controls were used to establish the normal range for the T/ST ratio at <0.056. A cut-off of 0.06 was used to diagnose hyposialylation of O-linked protein glycosylation in human plasma or serum.
O-glycans were released from plasma glycoproteins and prepared for analysis essentially as described by Carlson (J Biol Chem 243: 616-626, 1968; Liu et al. Mol Genet Metab 106, 442-454 (2012)), with modifications as described. An internal standard (1250 pmol raffinose in 5 μL) was added to 10 μL of plasma and 65 μl water for a final volume of 100 μL. Next, 100 μL of freshly prepared 2M […] in 0.1M sodium hydroxide was added to denature the serum proteins and release the O-glycans; the mixture was incubated at 45° C. for 16 hours to ensure complete reaction. The reaction was neutralized by drop wise addition of 1.6 mL of a 0.25M acetic acid-methanol solution, and the O-glycans were extracted in methanol. […]

| Structure (SMILES) | T/ST ratio after sialic acid treatment (one GNE myopathy patient (NH00016), sialic acid received one month before the test, cut-off 0.06) | T/ST ratio range under ManNAc (one GNE myopathy patient (SIA79) self-administering off-label ManNAc, abnormal range 0.06 or higher) |
| --- | --- | --- |
| CC(=O)N[C@@H]1C(O)C[C@](O)(C(=O)O)OC1[C@H](O)[C@H](O)CO (stereo in doubt) [sialic acid, N-acetylneuraminic acid] | 0.05 | – |
| CC(=O)N[C@H]1[C@@H](O)[C@H](O)[C@@H](CO)O[C@H]1O [ManNAc, N-acetyl-D-mannosamine] | – | normal range |

Source: patent US9341619B2, “Hyposialylation disorders” (THE UNITED STATES OF AMERICA, as representated by the …, priority 2013, dated 2016)
